Results from patent US8031338B2, “Measuring Forster resonance energy transfer with polarized and depolarized light” (Vanderbilt University, priority 2004, dated 2011).

Columns and labels:
[1] = tested on: COS-7 cells expressing SCAT3.1 (caspase-3 cleavage site); details: COS-7 cells expressing SCAT3.1, 96-well plate; 10 μM H2O2 for 90 min; FIG. 6D
[2] = tested on: COS-7 cells expressing SCAT3.1 (caspase-3 cleavage site); assay: A-FRET microscopy of SCAT 3.1 apoptosis sensor cleavage in live cells; assay type: cell-based; details: COS-7 cells transfected with SCAT 3.1; imaged immediately after treatment and after 5 hours; FIG. 6A-C
Procedure: Sample Preparation. Beads from a 5 ml HiTRAP chelating HP column (Amersham Biosciences) were charged using a 0.1M NiSO (Rizzo and Piston, 2005) solution and washed with 50 mM TrisHCl. The beads were then labeled as described (Youvan et al., 1997) with purified mCerulean, mVenus, or a linker protein containing mVenus and mCerulean separated by the linker sequence […]. Histadine-tagged recombinant protein was bacterially expressed and purified as previously described (Rizzo et al., 2004). For living cell studies, plasmid DNA encoding FP constructs were introduced was into COS-7 cells using FUGENE (Roche) transfection reagent according to the manufacturer's instructions. […]
Fluorescence Imaging. […] Fluorescence emission was filtered through a 515-540 nm bandpass filter and 2 mm BGG22 glass prior to separation vertical and horizontal polarizations with a broadband polarizing cube beam splitter (Newport). […]
To test the ability of this approach to measure FRET changes in a live cell based assay, COS-7 cells were transfected with the apoptosis sensor, SCAT 3.1 (Nagai and Miyawaki, 2004), which consists of cyan and yellow FPs separated by a caspase-3 cleavage site (FIG. 6A). […] SCAT 3.1 cleavage was also monitored in cells grown on a 96-well plate. […] The use of an intrinsic parameter, such as anisotropy, enables absolute threshold values to be determined for occurrence of FRET during an assay. […]

OO [hydrogen peroxide]
overall anisotropy in the yellow emission channel, indicating caspase-3 activation [1]: increase in the overall anisotropy

CN[C@@H]1C[C@H]2O[C@@](C)([C@@H]1OC)n1c3ccccc3c3c4c(c5c6ccccc6n2c5c31)C(=O)NC4 [staurosporine]
emission in the yellow FP channel (polarization) following induction of apoptosis [2]: changes from highly depolarized fluorescence to highly polarized fluorescence
